# Values joined by “and” are separate entries in the source; they are usually repeats but may differ in a detail not shown here. Identical values can stand only once.
# T1: human Gal-12 (Homo sapiens, UniProt Q96DT0)
# T1 construct: To obtain full-length human Gal-12, we adapted our previously optimized procedure for murine Gal-12; made in house; host or cells: Escherichia coli Rosetta 2 (DE3)
# T1 sequence (Q96DT0 1-336): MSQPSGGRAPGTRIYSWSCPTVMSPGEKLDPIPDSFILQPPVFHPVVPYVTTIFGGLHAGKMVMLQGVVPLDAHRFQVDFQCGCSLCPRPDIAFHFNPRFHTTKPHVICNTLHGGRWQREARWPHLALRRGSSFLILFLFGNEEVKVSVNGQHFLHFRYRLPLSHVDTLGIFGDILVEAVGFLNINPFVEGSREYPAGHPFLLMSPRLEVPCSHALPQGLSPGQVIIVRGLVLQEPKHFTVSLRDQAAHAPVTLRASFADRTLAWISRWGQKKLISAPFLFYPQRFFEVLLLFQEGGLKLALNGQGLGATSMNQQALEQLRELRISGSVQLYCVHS
# T2: human Gal-4 (Homo sapiens, UniProt P56470)
# T2 construct: His6-SUMO (N, cleaved yes); made in house; host or cells: Escherichia coli BL21 (DE3)
# T2 sequence (P56470 1-323): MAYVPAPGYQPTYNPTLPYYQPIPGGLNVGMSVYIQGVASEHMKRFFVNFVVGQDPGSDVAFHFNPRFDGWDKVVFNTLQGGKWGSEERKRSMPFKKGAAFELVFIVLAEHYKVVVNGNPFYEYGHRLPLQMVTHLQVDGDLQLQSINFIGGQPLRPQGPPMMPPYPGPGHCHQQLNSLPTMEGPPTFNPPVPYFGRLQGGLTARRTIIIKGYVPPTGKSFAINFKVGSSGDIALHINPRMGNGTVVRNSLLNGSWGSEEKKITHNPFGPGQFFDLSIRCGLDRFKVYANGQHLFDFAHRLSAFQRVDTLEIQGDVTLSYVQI
# What was measured:
# human Gal-12 = biological target: T1, human Gal-12; experiment: Competitive solid-phase assay (SPA), immobilized asialofetuin, Gal-12; type: binding; conditions: mean ± S.D., three independent experiments
# Protocol: (§1) The assay was adapted from Rapoport et al. (2010) ([88]). Briefly, 96-well plates (flat-bottom) were coated with 10 μg/ml asialofetuin (ASF, Sigma-Aldrich) in sodium carbonate buffer (pH 9.6) and incubated overnight at 4 °C. Then, wells were washed three times with 100 μl/well PBS-Tween 0.05% (w/v) and blocked with 100 μl/well PBS-bovine serum albumin (BSA) 2% (1 h, room temperature (RT)) in a humid chamber. Meanwhile, equal volumes of human recombinant Gal-1, -3, -4, -7, and -12 (20–40 μg/ml) in PBS-BSA 0.3% buffer were preincubated with the corresponding inhibitors in serial dilutions (2 h, 37 °C). After washing, galectins were detected using the corresponding antigalectin primary detection antibodies in PBS-BSA 0.3% w/v (1 h at RT). For Gal-1, wells were incubated with an in-house purified 100 ng/ml biotinylated rabbit anti–human Gal-1 polyclonal immunoglobulin G. For Gal-3, -4, and -7, a 1:500 dilution of the corresponding biotinylated anti-human galectin antibodies was used (BAF1154, BAF1227, and MAB13391, respectively, R&D Systems). For Gal-12, a rabbit anti-human Gal-12 polyclonal antibody (Santa Cruz Biotechnology, 1:700) was used. For Gal-1, -3, -4, and -7, plates were rinsed three times before adding 0.33 μg/ml horseradish peroxidase (HRP)-labeled streptavidin (Sigma-Aldrich) for 30 min. For Gal-12, an anti-rabbit secondary antibody conjugate coupled to HRP was incubated for 1 h at RT in PBS-BSA 0.3% w/v. After washing, 100 μl TMB solution (0.1 mg/ml tetramethylbenzidine and 0.06% H2O2 in citrate-phosphate buffer, pH 5.0) was added to plates. The reaction was stopped by adding a 2N H2SO4 solution. Absorbance was determined at 450 nm in a Multiskan MS microplate reader (Thermo Fisher Scientific).
# human Gal-1 = biological target: T3, human Gal-1 (Homo sapiens, UniProt P09382); experiment: Competitive solid-phase assay (SPA), immobilized asialofetuin, Gal-1; type: binding; conditions: mean ± S.D., three independent experiments
# T3 construct: made in house; host or cells: Escherichia coli BL21 (DE3)
# T3 sequence (P09382 whole entry): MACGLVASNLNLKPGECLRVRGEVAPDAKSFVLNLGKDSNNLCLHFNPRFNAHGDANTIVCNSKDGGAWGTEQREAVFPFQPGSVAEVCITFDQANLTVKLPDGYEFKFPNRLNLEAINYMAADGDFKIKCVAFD
# Protocol: as §1
# human Gal-7 = biological target: T4, human Gal-7 (Homo sapiens, UniProt P47929); experiment: Competitive solid-phase assay (SPA), immobilized asialofetuin, Gal-7; type: binding; conditions: competitive SPA, immobilized asialofetuin; mean ± S.D., three independent experiments
# T4 construct: made in house; host or cells: Escherichia coli BL21 (DE3)
# T4 sequence (P47929 whole entry): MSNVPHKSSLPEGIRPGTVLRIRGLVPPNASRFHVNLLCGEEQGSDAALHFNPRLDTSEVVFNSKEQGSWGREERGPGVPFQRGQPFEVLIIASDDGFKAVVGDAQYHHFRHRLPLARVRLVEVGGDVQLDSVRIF
# Protocol: as §1
# human Gal-4 [1] = biological target: T2, human Gal-4; experiment: Isothermal titration calorimetry (ITC), Gal-4; type: binding; conditions: Gal-4, PBS, 298 K
# Protocol: All ITC experiments were performed by using a NanoITC (TA Instruments) under previously optimized conditions ([89]). A typical titration involved 20 injections at 300 s intervals of 2.5 μl aliquots of a 2.5 to 10 mM ligand solution into the sample cell (volume 200 μl) containing the different galectins (30–100 μM). The solutions were prepared by dissolving the glycan ligands in degassed PBS buffer at 298 K. The titration cell was continuously stirred at 300 rev/min. The heats of dilution of the ligands in the buffer were subtracted from the titration data. […] Fitting was performed using the Nano Analyze software (TA Instruments; https://www.tainstruments.com/itcrun-dscrun-nanoanalyze-software/) to determine association constants (Ka) and the enthalpy change (ΔH). No reliable fit of the thermodynamic parameters could be obtained for binding affinities above 80 μM.
# human Gal-4 [2] = biological target: T2, human Gal-4; experiment: Inhibition of Gal-4-driven IL-6 secretion by activated PBMCs (IL-6 ELISA); type: cell-based; conditions: Gal-4 50 or 100 μg/ml; BGA6 0.5, 1, 2.5 and 5 mM; 72 h; anti-CD3/CD28 activated PBMCs
# Protocol: (§2) PBMCs were isolated from anonymous healthy volunteer buffy coats (Fundación Hemocentro Blood Bank, Buenos Aires, Argentina), using Ficoll-Hypaque density gradient (Lymphoprep). The samples were then centrifuged at 1500 rpm for 25 min, and the interface corresponding to mononuclear cells was carefully removed and diluted with PBS supplemented with 2% fetal bovine serum. To reduce platelet contamination, three washing steps with PBS 2% fetal bovine serum were performed, and freshly isolated PBMCs were subsequently resuspended in complete RPMI medium. To obtain a bead to T-cell ratio of 1:1, approximately 16 × 10^4 PBMCs were activated with 2 μl of Dynabeads Human T-Activator CD3/CD28 (Gibco). After 24 h stimulation at 37 °C and 5% CO2, cells were incubated with human recombinant Gal-4 (25, 50, or 100 μg/ml) in the absence or presence of BGA6 (0.5, 1, 2.5, and 5 mM) for an additional time period of 72 h.
# (§3) Human IL-6 was determined in supernatants from activated PBMCs exposed or not to Gal-4 in the absence or presence of BGA6 using specific ELISA kits (BD Biosciences), according to the manufacturer's instructions. Briefly, 96-well plates (Costar) were coated with capture antibody during 18 h at 4 °C. […] Reaction was stopped with 2N H2SO4, and the absorbance was measured at 450 nm using a plate spectrophotometer (Multiskan).
# human Gal-4 [3] = biological target: T2, human Gal-4; experiment: Competitive solid-phase assay (SPA), immobilized asialofetuin, Gal-4; type: binding; conditions: mean ± S.D., three independent experiments
# Protocol: as §1
# human Gal-3 = biological target: T5, human Gal-3 (Homo sapiens, UniProt P17931); experiment: Competitive solid-phase assay (SPA), immobilized asialofetuin, Gal-3; type: binding; conditions: mean ± S.D., three independent experiments
# T5 construct: made in house; host or cells: Escherichia coli BL21 (DE3)
# T5 sequence (P17931 whole entry): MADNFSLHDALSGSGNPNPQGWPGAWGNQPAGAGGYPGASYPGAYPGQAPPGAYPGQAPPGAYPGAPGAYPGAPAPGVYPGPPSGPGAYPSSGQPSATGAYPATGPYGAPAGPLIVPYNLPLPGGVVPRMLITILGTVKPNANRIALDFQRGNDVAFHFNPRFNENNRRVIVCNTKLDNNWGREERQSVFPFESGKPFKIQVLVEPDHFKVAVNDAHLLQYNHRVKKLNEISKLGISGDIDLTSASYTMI
# Protocol: as §1
# Gal-1 = biological target: Gal-1; set-up: method as in PMID 15476813; conditions: at 298 K; read-out: dissociation constant reported for Gal-1/LacNAc interactions; cited from earlier work
# human PBMCs = experiment: IL-6 secretion by anti-CD3/CD28-activated PBMCs cultured with Gal-4 (IL-6 ELISA); type: cell-based; conditions: Gal-4 25, 50 or 100 μg/ml, 72 h
# Protocol: as §2, §3
IC50 (human Gal-12) [mM],IC50 (human Gal-1),IC50 (human Gal-7),-TΔS (human Gal-4 [1]) [kcal/mol],ΔH (human Gal-4 [1]) [kcal/mol],Kd (human Gal-4 [1]; n fixed to 1.00) [mM],Gal-4-driven IL-6 secretion by human activated PBMCs in presence of BGA6 (human Gal-4 [2]),IC50 (human Gal-4 [3]) [mM],IC50 (human Gal-3) [mM],Molecule,Kd (Gal-1) [mM],secretion of IL-6 by human-activated T lymphocytes in PBMCs (human PBMCs)
27.1 ± 1,5 mM and 5.02 mM,5.4 ± 0.7 mM,1.77 ± 0.14,-7.65 ± 0.72,0.051 ± 0.003,effectively suppressed,0.2 ± 0.1,1.5 ± 0.3,"CC(=O)NC1C(OC2C(O)C(CO)OC(OC3C(CO)OC(O)C(O)C3O)C2OC2OC(C)C(O)C(O)C2O)OC(CO)C(O)C1O (stereo not shown) [BGA6, blood group A antigen tetraose 6]",–,–
36 ± 0.9,1.3 ± 0.1 mM,2.5 mM and 2.49 mM,–,–,–,–,25.8,2 ± 0.2,"CC(=O)NC1C(O)OC(CO)C(OC2OC(CO)C(O)C(O)C2O)C1O (stereo not shown) [LacNAc, N-acetyllactosamine]",0.076,–
–,–,–,–,–,–,–,–,–,"Gal-4: recombinant full-length human galectin-4, tandem-repeat type lectin expressed in E. coli (protein, left off: His6, N-terminal, cleaved | SUMO, N-terminal, cleaved, recombinant full-length human galectin-4, tandem-repeat type lectin expressed in E. coli) MAYVPAPGYQPTYNPTLPYYQPIPGGLNVGMSVYIQGVASEHMKRFFVNFVVGQDPGSDVAFHFNPRFDGWDKVVFNTLQGGKWGSEERKRSMPFKKGAAFELVFIVLAEHYKVVVNGNPFYEYGHRLPLQMVTHLQVDGDLQLQSINFIGGQPLRPQGPPMMPPYPGPGHCHQQLNSLPTMEGPPTFNPPVPYFGRLQGGLTARRTIIIKGYVPPTGKSFAINFKVGSSGDIALHINPRMGNGTVVRNSLLNGSWGSEEKKITHNPFGPGQFFDLSIRCGLDRFKVYANGQHLFDFAHRLSAFQRVDTLEIQGDVTLSYVQI",–,significant and dose-dependent increase

# — PMC11367503, “Exploring galectin interactions with human milk oligosaccharides and blood group antigens identifies BGA6 as a functional galectin-4 ligand” (The Journal of Biological Chemistry, 2024)
